Measured values published in patent US10246712B2, “Genetic or pharmacological reduction of PERK enhances cortical- and hippocampus-dependent cognitive function” (Carmel-Haifa University Economic Corp. Ltd, priority 2015, dated 2019).

Tests used:
PERK [1] = format: in vivo, mouse; details: CA1 punches after 100 nM infusion into CA1; vs vehicle
Description: Animals were anesthetized under 2% isoflurane using an isoflurane table top unit (HME109, Highland Medical Equipment). Under aseptic conditions, a rodent stereotaxic apparatus (Kopf Stereotaxic Alignment System Model 1900) with continuous 1% isoflurane anesthesia was used. For CA1 infusion cannula was implanted bilaterally into the CA1 region (from the bregma: −1.94 mm AP, ±1.0 mm ML, −1.0 mm DV). The implanted cannula was cemented on the skull. Each cannula was fitted with a 28 gauge dummy cannula that extended 0.1 mm beyond the tip of the guide cannula to prevent blockage of the guide cannula. After cannulation, mice were allowed to recover for 7 days before infusion of PERK inhibitor or vehicle and behavior. On conditioning day, randomly assigned mice were infused with 100 nM PERK inhibitor GSK2606414 (Axten et al., 2012) dissolved in dimethyl sulfoxide (DMSO) and further diluted in saline to a final DMSO concentration of 0.5%, via a 28-gauge infusion cannula connected by polyethylene (PE 20) tubing to a 10 μL Hamilton microsyringe (Hamilton Company). The infusion cannula protruded 0.25 mm beyond the guide cannula. For CA1 administration, infusion volume of 1 μl of 100 nM GSK2606414 or vehicle was delivered using a Harvard PHD2000 syringe pump (Harvard Apparatus) over the course of 1 min (at a rate of 1 μL/min). […]

PERK [2] = target: T1, PERK (Rattus norvegicus, UniProt Q9Z1Z1); format: in vivo; details: 0.1% saccharin; 1 μl 100 nM into IC 20 min prior to novel taste; test day1; n=8
T1 construct: the PERK shRNA lentivirus was stereotacticaly injected to the IC of adult rats; from tissue; host or cells: insular cortex of adult male Wistar Hola rats, in vivo
T1 sequence (Q9Z1Z1 28-1108): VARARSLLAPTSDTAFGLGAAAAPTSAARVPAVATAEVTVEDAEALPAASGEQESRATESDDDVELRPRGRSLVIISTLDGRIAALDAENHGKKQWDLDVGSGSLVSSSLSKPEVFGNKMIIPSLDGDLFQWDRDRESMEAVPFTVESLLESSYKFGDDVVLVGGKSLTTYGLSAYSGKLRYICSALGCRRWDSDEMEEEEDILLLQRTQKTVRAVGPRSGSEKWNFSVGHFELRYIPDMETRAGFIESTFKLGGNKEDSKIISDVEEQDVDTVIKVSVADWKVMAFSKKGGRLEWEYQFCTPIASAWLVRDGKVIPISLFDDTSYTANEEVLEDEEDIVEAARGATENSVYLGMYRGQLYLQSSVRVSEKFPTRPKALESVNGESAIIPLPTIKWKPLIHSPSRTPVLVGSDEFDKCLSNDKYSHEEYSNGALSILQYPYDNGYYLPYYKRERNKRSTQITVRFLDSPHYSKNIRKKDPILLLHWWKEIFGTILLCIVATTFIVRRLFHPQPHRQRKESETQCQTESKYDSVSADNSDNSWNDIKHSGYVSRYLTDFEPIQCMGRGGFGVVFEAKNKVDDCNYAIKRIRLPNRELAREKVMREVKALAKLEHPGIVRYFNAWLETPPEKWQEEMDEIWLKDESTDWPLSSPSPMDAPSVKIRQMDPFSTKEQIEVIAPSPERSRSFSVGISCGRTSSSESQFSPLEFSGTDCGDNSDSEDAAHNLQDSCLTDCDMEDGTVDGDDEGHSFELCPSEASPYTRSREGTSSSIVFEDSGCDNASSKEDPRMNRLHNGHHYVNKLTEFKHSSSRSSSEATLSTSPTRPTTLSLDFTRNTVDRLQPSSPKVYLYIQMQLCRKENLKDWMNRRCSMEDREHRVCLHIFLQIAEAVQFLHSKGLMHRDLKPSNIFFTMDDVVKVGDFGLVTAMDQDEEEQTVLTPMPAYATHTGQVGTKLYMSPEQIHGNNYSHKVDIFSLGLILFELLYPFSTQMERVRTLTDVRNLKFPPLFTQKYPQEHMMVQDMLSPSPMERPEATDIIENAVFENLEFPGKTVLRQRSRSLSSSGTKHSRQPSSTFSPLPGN
Description: The rats were cannulated as described in Barki-Harrington et al. (2009). […]
The rats were separated into individual housing cages and underwent a 3-day water-restriction training session, in which once a day for 20 min, they were offered 20 ml of water from two pipettes, each containing 10 ml. […] The behavioral data are presented in terms of preference index, expressed as a percentage, [ml saccharin/(ml water plus ml saccharin)]×100, in which the quantities are those consumed during each test.

p-eIF2α = assay: Immunoblot of p-eIF2α levels in rat insular cortex (IC); format: in vivo; details: 1 μl, 100 nM stereotactic injection to the IC, compared to vehicle; n=15; data not shown
Description: For virus infusions, rats were first anesthetized with Ketamine (120 mg/kg) and Xylazine (6 mg/kg) and placed into a stereotactic frame (Steolting Europe, Dublin—Ireland) (Using a 32-gauge stainless steel injector attached to a stereotactic infusion pump, rats received 1 μl of lentivirus encoding PERK shRNA or lentivirus harboring a scrambled sequence over 10 min into the insular cortex (anteroposterior, +1.2 mm relative to bregma; lateral, ±5.5 mm; ventral, −6.0 mm) according to the atlas of Paxinos, G. & Watson, C. (2006). The injector was lets in place for 5 min before and after infusion to minimize fluid retraction. The rats were allowed at least 7 days to recover from the surgery before any behavior experiments were conducted.
The rats were cannulated as described in Barki-Harrington et al. (2009). Briefly, the rats were anesthetized by administration of equithesin (0.3 ml/100 g), comprising 2.12% (w/v) MgSO4, 10% (v/v) ethanol, 39.1% (v/v) propyleneglycol, 0.98% (w/v) sodium pentobarbital, and 4.2% (w/v) chloral hydrate. […]
At the end of the behavioral procedure, the brains were removed, and snap-frozen in liquid nitrogen. […] Protein content was determined with the BCA Protein Assay Kit (GE Healthcare). […]

With Cn1cc(-c2ccc3c(c2)CCN3C(=O)Cc2cccc(C(F)(F)F)c2)c2c(N)ncnc21 [GSK2606414, 7-methyl-5-(1-{[3-(trifluoromethyl)phenyl]acetyl}-2,3-dihydro-1H-indol-5-yl)-7H-pyrrolo[2,3-d]pyrimidin-4-amine] the “total PERK levels” value (PERK [1]) was “no effect”, the preference index (PERK [2]) was 83%±2.2 and the “reduction in p-eIF2α levels” value (p-eIF2α) was 40%.
